According to US20250313533A1, “QUINOLINE CARBOXYLIC ACID ESTER COMPOUND AND PREPARATION METHOD AND USE THEREOF” (priority 2019, published 2025):

Experiments:
[1] = tested on: pathogenic bacteria causing fruit blotch in watermelons; experiment: In vitro bactericidal activity, fruit blotch in watermelons; format: cell-based, acidovorax; settings: read-out: inhibitory rate; for inhibition at 1 ppm: dosage 1 ppm; for inhibition at 5 ppm: dosage 5 ppm
[2] = tested on: pathogenic bacteria causing bacterial wilt in cassava; experiment: organism not typed; format: cell-based; settings: read-out: inhibitory rate
bacterial blight in rice = experiment: whole plant or invertebrate; settings: Oryza sativa, read-out: efficacy against bacterial blight in rice
[3] = tested on: soft rot in Chinese cabbages; experiment: whole plant or invertebrate; settings: 48 h, read-out: efficacy against soft rot in Chinese cabbages
[4] = tested on: pathogenic bacteria causing fire blight in pears; experiment: In vitro bactericidal activity, fire blight in pears; format: cell-based, erwinia; settings: Erwinia, read-out: inhibitory rate; for inhibition at 1 ppm: dosage 1 ppm; for inhibition at 5 ppm: dosage 5 ppm
black shank in potatoes = experiment: Living crops in vivo protective activity, potatoes (root irrigation); settings: Solanum tuberosum, read-out: efficacy against black shank in potatoes; for pest or weed control at 5 ppm: dosage 5 ppm; for pest or weed control at 10 ppm: dosage 10 ppm
Protocol: Root irrigation was carried out on the potatoes for tests according to the designed concentration of the agents. The dosage for each plant was 200 mL and was kept consistent (also for the control). The black shank bacteria were inoculated on the second day after the application. The results were investigated according to the disease condition.

[5] = tested on: pathogenic bacteria causing bacterial blight in rice; experiment: whole plant or invertebrate; format: cell-based, xanthomonas; settings: read-out: inhibitory rate
[6] = tested on: bacterial wilt in tobacco; experiment: whole plant or invertebrate; settings: Nicotiana tabacum, read-out: efficacy against bacterial wilt in tobacco
[7] = tested on: fruit blotch in watermelons; experiment: whole plant or invertebrate; settings: read-out: efficacy against fruit blotch in watermelons
[8] = tested on: pathogenic bacteria causing black shank in potatoes; experiment: In vitro bactericidal activity, black shank in potatoes; format: cell-based; settings: read-out: inhibitory rate; for inhibition at 1 ppm: dosage 1 ppm; for inhibition at 5 ppm: dosage 5 ppm
[9] = tested on: pathogenic bacteria causing stem rot in sweet potatoes; experiment: In vitro bactericidal activity, stem rot in sweet potatoes; format: cell-based, dikia; settings: read-out: inhibitory rate; for inhibition at 1 ppm: dosage 1 ppm; for inhibition at 5 ppm: dosage 5 ppm
[10] = tested on: stem rot in sweet potatoes; experiment: whole plant or invertebrate; settings: read-out: efficacy against stem rot in sweet potatoes
[11] = tested on: indoor potted cucumber seedlings; experiment: Effect of improving growth and development of crops; format: in vivo; set-up: Rate of growth rate increase (%): concentration or dose not given beside the values; settings: versus blank control; for Rate of chlorophyll content increase (%) / Rate of leaf area increase (%): 14 days after application; for Rate of growth rate increase (%): plant height 14 days after application; for Rate of leaf area increase (%): second leaf
Protocol: Taking indoor potted cucumber seedlings as an example, the influence of the compound disclosed herein on growth rate of plant height, chlorophyll content, leaf area, etc. of crops was mainly evaluated.
The plant heights of plants before application and 14 days after the application were measured.
The growth rates were calculated according to formula (1)
The rates of the growth rate increase (%) were calculated according to formula (2)
The longitudinal and transverse diameters (i.e., leaf length and leaf width, respectively, wherein the leaf length is the distance from the base to the tip of a leaf, and leaf width is the measured value of the upper shoulder width of the leaf) of the second leaf of plants before application and 14 days after the application were measured.
The leaf areas were calculated according to formula (3)
The leaf area increases were calculated according to formula (4)
The rates of the leaf area increases were calculated according to formula (5)
The chlorophyll contents of leaves were measured by using a chlorophyll measuring instrument (model: SPAD-520 Plus).
The chlorophyll content increases were calculated according to formula (6)
The rates of the chlorophyll content increases were calculated according to formula (7)

[12] = tested on: pathogenic bacteria causing bacterial wilt in tobacco; experiment: whole plant or invertebrate; format: cell-based, ralstonia; settings: read-out: inhibitory rate
cucumber seedlings = experiment: Safety for plant growth after application; format: in vivo; settings: dosage 200 ppm
Procedure, shortened: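 Read-outs are chlorophyll content, leaf area and the rate of increase in plant height, all measured on cucumber seedlings kept in pots indoors after application.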

[13] = tested on: pathogenic bacteria causing black rot in Chinese cabbages; experiment: In vitro bactericidal activity, black rot in Chinese cabbages; format: cell-based, xanthomonas; settings: Xanthomonas, read-out: inhibitory rate; for inhibition at 1 ppm: dosage 1 ppm; for inhibition at 5 ppm: dosage 5 ppm
[14] = tested on: pathogenic bacteria causing bacterial angular leaf spot in cucumbers; experiment: In vitro bactericidal activity, bacterial angular leaf spot in cucumbers; format: cell-based, pseudomonas; settings: read-out: inhibitory rate; for inhibition at 1 ppm: dosage 1 ppm; for inhibition at 5 ppm: dosage 5 ppm

| SMILES | inhibition at 1 ppm [1] [%] | inhibition at 5 ppm [1] [%] | inhibition at 1 ppm [2] [%] | inhibition at 5 ppm [2] [%] | pest or weed control at 5 ppm (bacterial blight in rice) [%] | pest or weed control at 10 ppm (bacterial blight in rice) [%] | pest or weed control at 5 ppm [3] [%] | pest or weed control at 10 ppm [3] [%] | inhibition at 1 ppm [4] [%] | inhibition at 5 ppm [4] [%] | pest or weed control at 5 ppm (black shank in potatoes) [%] | pest or weed control at 10 ppm (black shank in potatoes) [%] | inhibition at 1 ppm [5] [%] | inhibition at 5 ppm [5] [%] | pest or weed control at 5 ppm [6] [%] | pest or weed control at 10 ppm [6] [%] | pest or weed control at 5 ppm [7] [%] | pest or weed control at 10 ppm [7] [%] | inhibition at 1 ppm [8] [%] | inhibition at 5 ppm [8] [%] | further results |
| --- | --- | --- | --- | --- | --- | --- | --- | --- | --- | --- | --- | --- | --- | --- | --- | --- | --- | --- | --- | --- | --- |
| COCCCOC(=O)c1cn(C2CC2)c2cc(F)ccc2c1=O [Compound 208] | ≥ 90 | ≥ 90 | ≥ 90 | ≥ 90 | ≥ 90 | ≥ 90 | ≥ 90 | ≥ 90 | ≥ 90 | ≥ 90 | ≥ 90 | ≥ 90 | ≥ 90 | ≥ 90 | ≥ 90 | ≥ 90 | ≥ 90 | ≥ 90 | ≥ 90 | ≥ 90 | inhibition at 1 ppm [9]: ≥ 90%; inhibition at 5 ppm [9]: ≥ 90%; pest or weed control at 5 ppm [10]: ≥ 90%; pest or weed control at 10 ppm [10]: ≥ 90%; Rate of chlorophyll content increase (%) [11]: 12%; Rate of growth rate increase (%) [11]: 5%; Rate of leaf area increase (%) [11]: 11%; inhibition at 1 ppm [12]: ≥ 90%; inhibition at 5 ppm [12]: ≥ 90%; safety for plant growth (discoloration, necrosis, wilt, malformation) (cucumber seedlings): safe for plant growth; inhibition at 1 ppm [13]: ≥ 90%; inhibition at 5 ppm [13]: ≥ 90%; inhibition at 1 ppm [14]: ≥ 90%; inhibition at 5 ppm [14]: ≥ 90% |
| CCOCOC(=O)c1cn(C2CC2)c2cc(Cl)c(F)cc2c1=O [Compound 144] | ≥ 80 | ≥ 90 | ≥ 80 | ≥ 90 | ≥ 80 | ≥ 90 | ≥ 80 | ≥ 90 | ≥ 80 | ≥ 90 | ≥ 80 | ≥ 90 | ≥ 80 | ≥ 90 | ≥ 90 | ≥ 90 | ≥ 90 | ≥ 90 | ≥ 80 | ≥ 90 | inhibition at 1 ppm [9]: ≥ 80%; inhibition at 5 ppm [9]: ≥ 90%; pest or weed control at 5 ppm [10]: ≥ 90%; pest or weed control at 10 ppm [10]: ≥ 90%; Rate of chlorophyll content increase (%) [11]: 18%; Rate of growth rate increase (%) [11]: 10%; Rate of leaf area increase (%) [11]: 13%; inhibition at 1 ppm [12]: ≥ 80%; inhibition at 5 ppm [12]: ≥ 90%; safety for plant growth (discoloration, necrosis, wilt, malformation) (cucumber seedlings): safe for plant growth; inhibition at 1 ppm [13]: ≥ 80%; inhibition at 5 ppm [13]: ≥ 90%; inhibition at 1 ppm [14]: ≥ 80%; inhibition at 5 ppm [14]: ≥ 90% |
| CCOc1cc2c(cc1F)c(=O)c(C(=O)OCCCO)cn2C1CC1 [Compound 309] | ≥ 90 | ≥ 90 | ≥ 90 | ≥ 90 | ≥ 90 | ≥ 90 | ≥ 90 | ≥ 90 | ≥ 90 | ≥ 90 | ≥ 90 | ≥ 90 | ≥ 90 | ≥ 90 | ≥ 90 | ≥ 90 | ≥ 90 | ≥ 90 | ≥ 90 | ≥ 90 | inhibition at 1 ppm [9]: ≥ 90%; inhibition at 5 ppm [9]: ≥ 90%; pest or weed control at 5 ppm [10]: ≥ 90%; pest or weed control at 10 ppm [10]: ≥ 90%; Rate of chlorophyll content increase (%) [11]: 16%; Rate of growth rate increase (%) [11]: 12%; Rate of leaf area increase (%) [11]: 15%; inhibition at 1 ppm [12]: ≥ 90%; inhibition at 5 ppm [12]: ≥ 90%; safety for plant growth (discoloration, necrosis, wilt, malformation) (cucumber seedlings): safe for plant growth; inhibition at 1 ppm [13]: ≥ 90%; inhibition at 5 ppm [13]: ≥ 90%; inhibition at 1 ppm [14]: ≥ 90%; inhibition at 5 ppm [14]: ≥ 90% |
| CNc1cc2c(cc1F)c(=O)c(C(=O)OCCO)cn2C1CC1 [Compound 400] | ≥ 90 | ≥ 90 | ≥ 90 | ≥ 90 | ≥ 90 | ≥ 90 | ≥ 90 | ≥ 90 | ≥ 90 | ≥ 90 | ≥ 90 | ≥ 90 | ≥ 90 | ≥ 90 | ≥ 90 | ≥ 90 | ≥ 90 | ≥ 90 | ≥ 90 | ≥ 90 | inhibition at 1 ppm [9]: ≥ 90%; inhibition at 5 ppm [9]: ≥ 90%; pest or weed control at 5 ppm [10]: ≥ 90%; pest or weed control at 10 ppm [10]: ≥ 90%; Rate of chlorophyll content increase (%) [11]: 17%; Rate of growth rate increase (%) [11]: 13%; Rate of leaf area increase (%) [11]: 18%; inhibition at 1 ppm [12]: ≥ 90%; inhibition at 5 ppm [12]: ≥ 90%; safety for plant growth (discoloration, necrosis, wilt, malformation) (cucumber seedlings): safe for plant growth; inhibition at 1 ppm [13]: ≥ 90%; inhibition at 5 ppm [13]: ≥ 90%; inhibition at 1 ppm [14]: ≥ 90%; inhibition at 5 ppm [14]: ≥ 90% |
